# Target: Aldo-keto reductase family 1 member B1 (Rattus norvegicus) (UniProt P07943)
# Assay: Inhibition of Aldose Reductase at compound concentration of 10.0 uM in the Eurofins-Panlabs enzyme assay (Eurofins_assay_107000)
# Parameters: substrate with concentration
# Conditions: Compound concentration 10.0 uM
smiles,measurement,value
C[C@H](O)c1nc(Cn2nc(-c3ccc(Cl)cc3)n(C[C@H](O)C(F)(F)F)c2=O)nn1-c1cccc(Cl)c1 [PECAVAPTAN],inhibition,6%

# From ChEMBL document CHEMBL5463729, “Data for DCP probe BAY 1753011” (2023)
